Test results taken from ChEMBL document CHEMBL1142560, “Furocoumarin glycosides from the leaves of Ficus ruficaulis Merr. var. antaoensis” (J Nat Prod, 2005).

How the values were obtained:
PBMC [1] = assay: Antiproliferative activity against human PBMC upto 100 uM; assay type: cell-based
PBMC [2] = assay: Antiproliferative activity against human PBMC; assay type: cell-based

Compound	Activity (PBMC [1])	IC50 (PBMC [2])
O=c1ccc2c(O[C@@H]3O[C@H](CO)[C@@H](O)[C@H](O)[C@H]3O)c(O[C@@H]3O[C@H](CO)[C@@H](O)[C@H](O)[C@H]3O)c3occc3c2o1	Not Active	–
O=c1ccc2c(O)c3ccoc3c(O[C@@H]3O[C@H](CO)[C@@H](O)[C@H](O)[C@H]3O)c2o1	Not Active	–
O=c1ccc2c(O[C@@H]3O[C@H](CO)[C@@H](O)[C@H](O)[C@H]3O)c(O)c3occc3c2o1	–	33.4 µM
O=c1ccc2c(O[C@@H]3O[C@H](CO)[C@@H](O)[C@H](O)[C@H]3O)c3ccoc3c(O)c2o1	Not Active	–
O=c1ccc2c(O)c(O[C@@H]3O[C@H](CO)[C@@H](O)[C@H](O)[C@H]3O)c3occc3c2o1	Not Active	–
C/C=C/C[C@@H](C)[C@@H](O)[C@H]1C(=O)N[C@@H](CC)C(=O)N(C)CC(=O)N(C)[C@@H](CC(C)C)C(=O)N[C@@H](C(C)C)C(=O)N(C)[C@@H](CC(C)C)C(=O)N[C@@H](C)C(=O)N[C@H](C)C(=O)N(C)[C@@H](CC(C)C)C(=O)N(C)[C@@H](CC(C)C)C(=O)N(C)[C@@H](C(C)C)C(=O)N1C [CYCLOSPORINE]	–	0.012 µM
